Tests used:
relapsed/refractory CLL = assay: Clinical study in relapsed/refractory CLL: efficacy; type: in vivo, human; settings: Kaplan-Meier, p-value 0.0206
Protocol: This study is a multicenter, open-label, nonrandomized, sequential group, dose escalation study. The following dose cohorts will be evaluated:
The investigator rates the subject's response to treatment based on recent guidelines for CLL, as given in Hallek, et al., Blood 2008, 111, 5446-56, and for SLL, as given in Cheson, et al., J. Clin. Oncol. 2007, 25, 579-586.
The analysis of efficacy parameters was performed as follows. The point estimate of the overall response rate will be calculated for the PP analysis set. The corresponding 95% confidence interval also will be derived. The duration of overall response is measured from the time measurement criteria are met for CR or PR (whichever is first recorded) until the first date that recurrent or progressive disease is objectively documented (taking as reference for progressive disease the smallest measurements recorded since the treatment started). […] Progression-free survival is measured from the time of first study drug administration until the first date that recurrent or progressive disease is objectively documented (taking as reference for progressive disease the smallest measurements recorded since the treatment started). […]
The study scheme is a seqential cohort escalation. […] The dose level for Cohort 6 will be determined based on the safety and efficacy of Cohorts 1 to 5, and will not exceed 900 mg/day. […]

[1] = tested on: GPVI platelet aggregation; assay: GPVI (convulxin) platelet aggregation; type: cell-based, human
CD8+ T cells = assay: CD8+ T cell viability; type: cell-based; settings: ibrutinib effect at higher doses
Protocol: Total T cells were plated on anti-TCR and anti-CD28 coated wells in the presence of both BTK inhibitors. Neutral culture conditions were used that will not polarize T cells to a helper lineage. […] Statistical significance was calculated using the Mann Whitney T-test.

[2] = In vitro metabolism in hepatocytes with 14C-labeled drug; type: in vitro ADME, and human; settings: mouse, rat, dog, rabbit, monkey, human hepatocytes
NK cells (CD56+/CD107a+) = assay: Whole blood NK cell degranulation with obinutuzumab-opsonised MEC-1 cells; type: cell-based, human; settings: 1 h pretreatment, obinutuzumab 1 μg/mL, 4 h
Protocol: Degranulation in whole blood was performed as follows. […] Exponentially growing cells were used. […] A white blood cell (WBC) count of whole blood was performed. […] The ibrutinib control and two blinded BTK inhibitors were diluted in X-VIVO 15 serum-free hematopoietic cell medium (Lonza Group, Ltd.) to concentrations of 200 μM, 20 M and 2 μM. 170 μL aliquots of unmanipulated whole blood were incubated with 10 μL BTK inhibitors or X-VIVO 15 medium for one hour into a plate. […] The samples were placed in a 5% CO2 incubator for 4 hours at 37° C.
After 4 hours, the samples were mixed gently and 50 μL aliquots were removed from each well and placed in fluorescence-activated cell sorting (FACS) test tubes. A 20 μL aliquot of anti-CD56-APC antibody and anti-CD107a-PE antibody was added. The samples were incubated for 20 minutes at room temperature in the dark. An aliquot of 2 mL of FACS lysing solution (BD Biosceinces) was added. The samples were again incubated for 5 minutes, and then centrifuged at 2000 rpm for 5 minutes. Supernatant was discarded and the cell pellet was resuspended in 500 μL of PBS. The samples were analyzed on the flow cytometer for CD107a^+ NK cells (CD56^+).

NSCLC (KrasLA2) = assay: KrasLA2 NSCLC genetic tumor model; type: in vivo, mice; settings: 15 mg/kg
Excerpt: The model is designed to have sporadic expression in single cells of G12D mutant Kras off its own promoter triggered by spontaneous intrachromosomal recombination. Johnson, et al. Nature 2001, 410, 1111-16. While the mutant Kras protein is expressed in a few cells in all tissues, tumor development is seen only in the lung at high penetrance.

[3] = Cardiovascular function study in awake telemeterized dogs; type: in vivo, male beagle dogs; settings: single doses through 30 mg/kg
Excerpt: (§1) Formula (2) was well tolerated in standard in vivo Good Laboratory Practices (GLP) studies of pharmacologic safety.

Th17 cells and Treg = assay: Th17 and Treg development from CD4+ T cells; type: cell-based
Protocol: Enriched CD4^+ T cells are plated on 24-well culture dishes that have been precoated 2 hr with 250 μL anti-TCRβ (0.5 μg/mL) plus anti-CD28 (5 μg/mL) at 37° C. in PBS. The cells are then supplemented with media containing BTK inhibitors along with the skewing cytokines as indicated in the following. The Th17 and Treg cultures are grown for 4 days before analysis. The cells are maintained for an additional 3 days with skewing cytokines (Th17; 20 ng/mL IL-6, 0.5 ng/mL TGF-β, 5 μg/mL IL-4, 5 μg/mL IFN-γ and Treg; 0.5 ng/mL TGF-β, 5 μg/mL IL-4, […] IFN-γ) and are supplemented with IL2 as a growth factor.

CD8+ T cell function = assay: Cytotoxic T cell (CTL) assay; type: cell-based; settings: relative to vehicle; for CD8+ T cell function as % cytotoxicity: 500 nM
Protocol: Without being bound by any theory, CD8^+ T cells have two primary effector functions: (1) produce large amounts of IFN-γ (which activates macrophages), and (2) cytolytic activity. […] The targets were B lymphoblasts from lipopolysaccharide (LPS) treated cultures. The assay was performed by incubating different ratios of effectors:targets for 4 hours.

ID8 ovarian cancer = assay: ID8 syngeneic orthotropic ovarian cancer model; type: in vivo, mice; settings: 15 mg/kg/BID orally
Excerpt: Human ovarian cancer models, including the ID8 syngeneic orthotropic ovarian cancer model and other animal models, are described in Fong and Kakar, J. Ovarian Res. 2009, 2, 12; Greenaway, et al., Gynecol. Oncol. 2008, 108, 385-94; Urzua, et al., Tumour Biol. 2005, 26, 236-44; Janat-Amsbury, et al., Anticancer Res. 2006, 26, 3223-28; Janat-Amsbury, et al., Anticancer Res. 2006, 26, 2785-89. […] The results of the study are shown in FIG. 4, FIG. 5, FIG. 6, FIG. 7, FIG. 8, FIG. 9, FIG. 10, and FIG. 11.

BTK = molecular target: T1, BTK (Mus musculus, UniProt P35991); assay: Molecular probe assay of BTK occupancy in MDSCs of tumor bearing PDA mice; type: in vivo; settings: 15 mg/kg BID, Day 8, 4 hours post dose
T1 construct: endogenous in cells; host or cells: granulocytic and monocytic MDSCs from tumour-bearing PDA (KPC) mice dosed in vivo
T1 sequence (P35991 whole entry): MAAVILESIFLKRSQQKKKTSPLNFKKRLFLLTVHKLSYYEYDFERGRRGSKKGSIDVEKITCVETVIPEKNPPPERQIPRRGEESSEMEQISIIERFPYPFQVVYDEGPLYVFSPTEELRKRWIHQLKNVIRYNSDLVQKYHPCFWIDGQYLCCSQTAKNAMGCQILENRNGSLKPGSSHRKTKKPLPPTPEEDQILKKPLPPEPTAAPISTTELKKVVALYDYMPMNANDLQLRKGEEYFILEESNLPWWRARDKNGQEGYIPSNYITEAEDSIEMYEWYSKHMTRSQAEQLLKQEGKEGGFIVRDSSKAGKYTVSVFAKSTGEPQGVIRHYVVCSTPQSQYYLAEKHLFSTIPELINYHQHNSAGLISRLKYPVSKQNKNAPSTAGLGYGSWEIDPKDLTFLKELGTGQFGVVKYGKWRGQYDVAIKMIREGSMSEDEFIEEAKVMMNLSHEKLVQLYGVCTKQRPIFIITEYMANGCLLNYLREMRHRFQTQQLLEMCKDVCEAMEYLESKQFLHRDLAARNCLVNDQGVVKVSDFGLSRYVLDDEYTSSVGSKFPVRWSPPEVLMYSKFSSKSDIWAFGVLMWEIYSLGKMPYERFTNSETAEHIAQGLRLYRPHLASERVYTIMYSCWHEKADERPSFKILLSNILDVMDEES
Excerpt: A molecular probe assay was used to calculate the percent irreversible occupancy of total BTK.

[4] = GLP functional observation battery; type: in vivo; settings: rats, doses through 300 mg/kg
Excerpt: as §1

[5] = tested on: 80 known pharmacologic targets such as G-protein-coupled receptors, nuclear receptors, proteases, and ion channels; assay: Binding assays with 80 known pharmacologic targets; settings: screened at 10 μM
Excerpt: as §1

[6] = tested on: human platelet-mediated thrombosis; assay: Laser-induced thrombus formation with human platelets in VWF HA1 mice; settings: in vivo
Protocol: Injury to the vessel wall of arterioles ([…] diameter) was performed using a pulsed nitrogen dye laser (440 nm, Photonic Instruments) applied through a 20× water-immersion Olympus objective (LUMPlanF1, 0.5 numerical aperature (NA)) of a Zeiss Axiotech vario microscope. […] The extent of thrombus formation was assessed for 2 minutes after injury and the area (μm^2) of coverage determined (Image IQ, Andor Technology).
The BTK inhibitor-treated human platelets were fluorescently labeled and infused continuously through a catheter inserted into the femoral artery.

[7] = tested on: BCR activation markers CD69 and CD86; assay: In vivo potency: BCR activation markers after gavage; settings: mice, 3 hours post-dose, IgM stimulation, compared with Formula (10)
Protocol: Mice were gavaged at increasing drug concentration and sacrificed at one time point (3 hours post-dose). BCR is stimulated with IgM and the expression of activation markers CD69 and CD86 are monitored by flow cytometry to determine EC50 values.
CD86 and CD69 are cell surface proteins that are BCR activation markers. […] BCR was stimulated with IgM and the expression of activation marker CD69 and CD86 are monitored by flow cytometry to determine EC50 values.

Raji cells = assay: Rituximab ADCC chromium release assay, Raji targets; type: cell-based, human; settings: 1 μM, healthy donor NK cells
Protocol: All in vitro experiments were performed in triplicate.
ADCC assays were performed as follows. Briefly, target cells (Raji or primary CLL) were labeled by incubation at 37° C. with 100 μCi ^51Cr for 4 hours prior to co-culture with NK cells. Cells were washed, enumerated, and then added in triplicate to prepared 96-well plates containing treated NK cells at an effector:target (E:T) ratio of 25:1. […] Cultures were incubated at 37° C. for 4 hours, and then centrifuged. Supernatants were harvested and ^51Cr release was measured by liquid scintillation counting. All experiments were performed in triplicate.

[8] = monotherapy, dose levels through 840 mg; cited from earlier work

Structure (SMILES): CC#CC(=O)N1CCC[C@H]1c1nc(-c2ccc(C(=O)Nc3ccccn3)cc2)c2c(N)nccn12 [Formula (2)]
- progression-free survival versus ibrutinib-treated patients (relapsed/refractory CLL): improvement in survival
- effect on GPVI platelet aggregation [1]: does not
- effect on CD8+ T cell viability (CD8+ T cells): no effect
- metabolites found in hepatocytes [2]: two mono-oxidized metabolites and a glutathione conjugate
- reduction of obinutuzumab-stimulated NK degranulation (NK cells (CD56+/CD107a+)): minimal effect
- tumor volumes versus vehicle (NSCLC (KrasLA2)): significant decrease
- body temperature, cardiovascular and ECG (including QT interval) parameters [3]: no meaningful changes
- effect on T helper 17 (Th17) cells (Th17 cells and Treg): no adverse effect
- effect on regulatory T cell (Treg) development (Th17 cells and Treg): no effect
- CD8+ T cell function as % cytotoxicity (CD8+ T cell function): no effect
- CD8+ T cell function as IFN-γ level (CD8+ T cell function): no effect
- treatment-related adverse event: Headache (Grade 1/2, All (N = 44)): 7 (16) n (%)
- treatment-related adverse event: Diarrhea (Grade 1, All (N = 44)): 4 (9) n (%)
- treatment-related adverse event: Increased tendency to bruise (Grade 1, All (N = 44)): 6 (14) n (%)
- treatment-related adverse event: Petechiae (Grade 1, All (N = 44)): 3 (7) n (%)
- dose-limiting toxicities (DLTs) (relapsed/refractory CLL): No DLTs
- grade of adverse events observed (relapsed/refractory CLL): only grade 1 AEs
- lymphocytosis (relapsed/refractory CLL): lack of lymphocytosis
- treatment-related serious adverse events (SAEs) (relapsed/refractory CLL): No treatment-related serious adverse events
- CD8+ T cells (ID8 ovarian cancer): increase
- immunosuppressive B cells, including Bregs (ID8 ovarian cancer; tumor-bearing mice): significant reduction
- irreversible BTK occupancy in granulocytic and monocytic MDSCs (BTK): Complete BTK occupancy
- neurobehavioral effects and body temperature [4]: no adverse effects
- activity in binding assays with 80 pharmacologic targets [5]: significant activity only against the A3 adenosine receptor
- effect on human platelet-mediated thrombus formation [6]: no significant effect
- in vivo potency at inhibiting expression of activation markers CD69 and CD86 [7]: more potent

Structure (SMILES): C=CC(=O)N1CCC[C@@H](n2nc(-c3ccc(Oc4ccccc4)cc3)c3c(N)ncnc32)C1 [Formula (10), reference compound]
- effect on GPVI platelet aggregation [1]: significantly inhibits
- effect on antibody-dependent lysis of rituximab-coated Raji cells (Raji cells): strongly inhibited
- effect on CD8+ T cell viability (CD8+ T cells): strongly affects
- effect on T helper 17 (Th17) cells (Th17 cells and Treg): strongly inhibits
- effect on regulatory T cell (Treg) development (Th17 cells and Treg): strongly increases
- CD8+ T cell function as % cytotoxicity (CD8+ T cell function): affects
- CD8+ T cell function as IFN-γ level (CD8+ T cell function): affects
- maximum tolerated dose [8]: No maximum tolerated dose (MTD) was apparent

Reference: patent publication US20200069668A1, “Therapeutic Combinations of an IRAK4 Inhibitor and a BTK Inhibitor” (Acerta Pharma B.V., priority 2015, published 2020)
